Experimental data: patent publication US5276034A, “Substituted imidazolyl-alkyl-piperazine and -diazepine derivatives” (Syntex Pharmaceutical Ltd., priority 1991, dated 1994)

Assays:
[1] = test system: abnormal neurones in brain areas after four vessel occlusion; experiment: Ten minute model of four vessel occlusion with 72 hour survival; assay type: in vivo; conditions: 100 mg/kg i.a. 5 min plus 500 mg/kg i.p. 15 min post-ischaemia
Method: B. Ten minute Model of four vessel occlusion with 72 hour survival.
The procedure used was that of Alps, et al., Neurology, 37, 809 (1987). The object of this assay was to count abnormally appearing cells in 7 different areas and exymers as a percentage of the total area counted. The number of counts per structure depended upon size, e.g., cortical areas had double the number of other areas. Mean whole brain scores were also determined for percent abnormalities. Normal brains were also used to account for incidence of artifact changes attributed to the fixation process.
. In this case 6 animals were used with the results shown in the below table.
2) Untreated (saline) ischemic controls--The animals were subjected to 10 minutes of bilateral common cartoid artery occlusion (with previously surgically sealed vertebral arteries) with 72 hours survival. The microscopic sections were prepared as in 1) above. In this case 11 animals were used with the results shown in the below table.
Parenteral, post-ischaemia treated--The animals were given 100 mg/kg i.a. of 1-diphenyl-methyl-4-[(2-(4-methylphenyl)-5-methylimidazol-4-yl)-methyl]piperazine trihydrochloride 5 minutes post-ischaemia plus 500 mg/kg i.p. of 1-diphenyl-methyl-4-[(2-(4-methylphenyl)-5-methylimidazol-4-yl)-methyl]piperazine trihydrochloride 15 minutes post-ischaemia. The microscopic sections were prepared according to 1) above. In this case 5 animals were used with the results shown in the below table.

[2] = test system: non-stimulated intestinal transit of the charcoal meal; experiment: Intestinal transit of a charcoal meal in conscious mice, non-stimulated; assay type: in vivo; conditions: Mus musculus, po, 15 min pre-treatment, read-out: % Inhibition Normal Transition
Method: (§1) The test used is a modification of the method of Macht and Barba-Gose, J. Amer. Pharm. […] In the present model, intestinal transit in conscious mice (15-20 g) was accelerated with an oral dose of barium chloride (300 mg/kg) administered at the same time as the charcoal meal. The animals were sacrificed 10 minutes later and the distance travelled by the charcoal measured. 1-diphenyl-methyl-4-[(2-(4-methylphenyl)-5-methylimidazol-4-yl)methyl]-piperazine trihydrochloride was given as a 15 minute oral pre-treatment and its effect on non-stimulated or barium-stimulated intestinal transit of the charcoal meal was calculated.

[3] = test system: barium-stimulated intestinal transit of the charcoal meal; experiment: Irritable bowel syndrome: intestinal transit of a charcoal meal in conscious mice, barium chloride stimulated; assay type: in vivo, mouse
Method: as §1

[4] = test system: abnormal neurones in brain after bilateral common carotid artery occlusion; experiment: Five minute model of bilateral common carotid artery occlusion in the gerbil with 72 hour survival; assay type: in vivo; conditions: then b.i.d. for 72 h
Method: In vivo protective effects of the compounds of this invention against the deleterious effects of cerebral ischemia are determined by use of the standard gerbil brain ischemia model.
A. Five minute model of bilateral common carotid artery occlusion in the gerbil with 72 hour survival
2) Sham-operated animals--The animals were anesthetized with a halothane-nitrous oxide-oxygen mixture. […] The microscopic sections were prepared and counted as in 1) above. In this case 7 animals were used and 100 microscopic fields were counted.
3) Untreated ischemic controls--In this case animals were subjected to 5 minute bilateral carotid artery occlusion with 72 hour survival. The microscopic sections were prepared and counted as in 1) above. In this case 12 animals were used and 120 microscopic fields were counted.
(§2) 4) Parenteral, 15 minute pre-ischemia treated--The animals were given 500 mg/kg i.p. of 1-diphenylmethyl-4-[(2-(4-methylphenyl)-5-methylimidazol-4-yl)methyl]piperazine trihydrochloride 15 minutes prior to ischaemic insult. The treatment was repeated b.i.d. for 72 hours. The microscopic sections were prepared and counted as in 1) above. In this case 10 animals were used and 100 microscopic fields were counted.
as §2, with “5) Parenteral” for “4) Parenteral,”, “pre-ischemic” for “pre-ischemia”, “250” for “500”, “Treatment” for “The treatment”, “6” for “10”, “60” for “100”
as §2, with “6) Parenteral” for “4) Parenteral,”, “post-ischemia” for “pre-ischemia”, “after” for “prior to”, “9” for “10”, “90” for “100”
7) Oral, pre-ischemia treated--The animals were given 5 mg/kg p.o. b.i.d. of 1-diphenyl-methyl-4-[(2-(4-methylphenyl)-5-methylimidazol-4-yl)-methyl]piperazine trihydrochloride for 3 days and on the 4th day at 1 hour pre-ischaemic. Treatment was repeated b.i.d. for 72 hours. The microscopic sections were prepared and counted as in 1) above. In this case 11 animals were used and 110 microscopic fields were counted.
8) Oral, pre-ischemia treated--The animals were given 10 mg/kg p.o. of 1-diphenyl-methyl-4-[(2-(4-methylphenyl)-5-methylimidazol-4-yl)-methyl]piperazine trihydrochloride for 3 days and on 4th day at 1 hour pre-ischaemia.Treatment was repeated b.i.d. for 72 hours. The microscopic sections were prepared and counted as in 1) above. In this case 9 animals were used and 90 microscopic fields were counted.

[5] = test system: pentylenetetrazole-induced seizures and mortality; experiment: Effect on pentylenetetrazole-induced seizures and mortality in the mouse; assay type: in vivo, mouse (male CDI); conditions: 500 mg/kg i.p., pentylenetetrazole 100 mg/kg s.c.
Method: C. The effect of 1-diphenyl-methyl-4-[(2-(4-methylphenyl)-5-methylimidazol-4-yl)-methyl]piperazine trihydrochloride on pentylenetetrazole-induced seizures and mortality in the mouse.
The procedure used was that described in Allely, and Alps, Br. J. Phramacol. Proc. Suppl., 92, 605P (1987). Groups of 20 or more (see n in table) male CDI mice were predosed with 500 mg/kg i.p. of 1-diphenyl-methyl-4-[(2-(4-methylphenyl)-5-methylimidazol-4-yl)methyl]piperazine trihydrochloride at one of three dosing schedules--A (15minutes), B (60 minutes), or C (3 days b.i.d. plus 15 minutes on 4th day)--before challenging with 100 mg/kg of pentylenetetrazole s.c. The animals were then observed for a 30 minute period and the occurrence of clonic or tonic seizures or death noted. Statistical analysis was by a Chi squared test of association. Results compared against saline treated animals are shown in the below table.

[6] = test system: male normotensive rats (urine volume, sodium and potassium excretion); experiment: Diuresis in male normotensive rats; assay type: in vivo, rat
Method: Male normotensive rats weighing 290-380 g were divided into four groups of seven animals. All animals were fasted and deprived of water overnight. The following morning, each group of rats was hydrated with deionized water ([…]. p.o.) 45 minutes prior to the administration of vehicle (1% polysorbate 80 in deionized water) or 1-diphenyl-methyl-4-[(2-(4-methylphenyl)-5-methylimidazol-4-yl)methyl]-piperazine trihydrochloride at doses of 5, 15, or 30 mg/kg p.o. Fifteen minutes post-drug, the animals were saline loaded (30 ml/kg, p.o. 0.9% sodium chloride) and placed individually in metabolism cages. Urine was collected at 1, 3, and 6 hour intervals post-dose. Urine volumes were measured and sodium and potassium levels were determined by flame photometry. Differences between control and treated values were evaluated by one way analysis of variance.

[7] = in vivo; cited from earlier work
[8] = schedule C (3 days b.i.d. plus 15 minutes on 4th day), n=24

Cc1ccc(-c2nc(CN3CCN(C(c4ccccc4)c4ccccc4)CC3)c(C)[nH]2)cc1.Cl.Cl.Cl [1-diphenylmethyl-4-[(2-(4-methylphenyl)-5-methylimidazol-4-yl)methyl]piperazine trihydrochloride]
Mean % Abnormal Neurones, Hip C2-5 ([1]; Hip C2-5): 1.78 ± 0.99% | Mean % Abnormal Neurones, Hip CA ([1]; Hip CA): 16.76 ± 4.00% | Mean % Abnormal Neurones, Hip. Cortex ([1]; Hip. Cortex): 2.41 ± 0.30% | Mean % Abnormal Neurones, Purk. cells ([1]; Purk. cells): 2.22 ± 0.79% | Mean % Abnormal Neurones, Str. Cortex ([1]; Str. Cortex): 2.01 ± 0.29% | Mean % Abnormal Neurones, Striatum ([1]; Striatum): 1.54 ± 0.33% | Mean % Abnormal Neurones, Thalamus ([1]; Thalamus): 0.64 ± 0.25% | inhibition at 5 mg/kg ([2]; 5 mg/kg p.o.): -19.3% | inhibition at 25 mg/kg ([2]; 25 mg/kg p.o.): -28.7% | inhibition at 60 mg/kg ([2]; 60 mg/kg p.o.): -16.1% | inhibition at 5 mg/kg ([3]; Mus musculus, po, 5 mg/kg p.o., 15 min pre-treatment, % of total transit induced by Ba^+2, read-out: % Inhibition of Ba^+2 effect): 14% | inhibition at 25 mg/kg ([3]; Mus musculus, po, 25 mg/kg p.o., 15 min pre-treatment, % of total transit induced by Ba^+2, read-out: % Inhibition of Ba^+2 effect): -30.4% | inhibition at 60 mg/kg ([3]; Mus musculus, po, 60 mg/kg p.o., 15 min pre-treatment, % of total transit induced by Ba^+2, read-out: % Inhibition of Ba^+2 effect): -31.7% | mean % abnormal neurones ([4]; 5 mg/kg p.o. b.i.d. 3 days and 1 h pre-ischemia): 3.00±1.00% | mean % abnormal neurones ([4]; 10 mg/kg p.o. 3 days and 1 h pre-ischemia): 22.00±3.10% | mean % abnormal neurones ([4]; 250 mg/kg i.p. 15 min pre-ischemia): 27.20±4.30% | mean % abnormal neurones ([4]; 500 mg/kg i.p. 15 min post-ischemia): 41.70±4.60% | mean % abnormal neurones ([4]; 500 mg/kg i.p. 15 min pre-ischemia): 26.90±3.30% | % clonic seizures ([5]; schedule A (15 minutes), n=20): 85.0% | % death ([5]; schedule A (15 minutes), n=20): 50.0% | % tonic seizures ([5]; schedule A (15 minutes), n=20): 85.0% | % clonic seizures ([5]; schedule B (60 minutes), n=25): 88.0% | % death ([5]; schedule B (60 minutes), n=25): 36.0% | % tonic seizures ([5]; schedule B (60 minutes), n=25): 64.0% | % clonic seizures [5, 8]: 66.7% | % death [5, 8]: 45.0% | % tonic seizures [5, 8]: 41.7% | Potassium ion, Cumulative ([6]; 5 mg/kg p.o., 1 hour): .04 ± .03 mEq | Sodium ion, Cumulative ([6]; 5 mg/kg p.o., 1 hour): .07 ± .06 mEq | Urine Volume, Cumulative ([6]; 5 mg/kg p.o., 1 hour): 5.7 ± 2.5 mL | Potassium ion, Cumulative ([6]; 5 mg/kg p.o., 3 hours): .16 ± .09 mEq | Sodium ion, Cumulative ([6]; 5 mg/kg p.o., 3 hours): .39 ± .25 mEq | Urine Volume, Cumulative ([6]; 5 mg/kg p.o., 3 hours): 9.5 ± 3.6 mL | Potassium ion, Cumulative ([6]; 5 mg/kg p.o., 6 hours): .26 ± .12 mEq | Sodium ion, Cumulative ([6]; 5 mg/kg p.o., 6 hours): .73 ± .32 mEq | Urine Volume, Cumulative ([6]; 5 mg/kg p.o., 6 hours): 11.8 ± 3.9 mL | Potassium ion, Cumulative ([6]; 15 mg/kg p.o., 1 hour): .04 ± .05 mEq | Sodium ion, Cumulative ([6]; 15 mg/kg p.o., 1 hour): .12 ± .16 mEq | Urine Volume, Cumulative ([6]; 15 mg/kg p.o., 1 hour): 5.7 ± 4.4 mL | Potassium ion, Cumulative ([6]; 15 mg/kg p.o., 3 hours): .12 ± .06 mEq | Sodium ion, Cumulative ([6]; 15 mg/kg p.o., 3 hours): .44 ± .20 mEq | Urine Volume, Cumulative ([6]; 15 mg/kg p.o., 3 hours): 9.8 ± 3.2 mL | Potassium ion, Cumulative ([6]; 15 mg/kg p.o., 6 hours): .20 ± .08 mEq | Sodium ion, Cumulative ([6]; 15 mg/kg p.o., 6 hours): .68 ± .28 mEq | Urine Volume, Cumulative ([6]; 15 mg/kg p.o., 6 hours): 11.7 ± 3.3 mL | Potassium ion, Cumulative ([6]; 30 mg/kg p.o., 1 hour): .04 ± .03 mEq | Sodium ion, Cumulative ([6]; 30 mg/kg p.o., 1 hour): .15 ± .12 mEq | Urine Volume, Cumulative ([6]; 30 mg/kg p.o., 1 hour): 6.5 ± 2.3 mL | Potassium ion, Cumulative ([6]; 30 mg/kg p.o., 3 hours): .15 ± .08 mEq | Sodium ion, Cumulative ([6]; 30 mg/kg p.o., 3 hours): .79 ± .38 mEq | Urine Volume, Cumulative ([6]; 30 mg/kg p.o., 3 hours): 10.5 ± 2.5 mL | Potassium ion, Cumulative ([6]; 30 mg/kg p.o., 6 hours): .27 ± .06 mEq | Sodium ion, Cumulative ([6]; 30 mg/kg p.o., 6 hours): 1.48 ± .24 mEq | Urine Volume, Cumulative ([6]; 30 mg/kg p.o., 6 hours): 14.6 ± 1.4 mL | diuresis ([6]; 30 mg/kg p.o., at 1 hour and 6 hours post-drug): significant (p<0.05) diuresis | natriuretic effect ([6]; 30 mg/kg p.o., at the 3 and 6 hour time periods): significant natriuretic effect | kaliuretic effects ([6]; following compound administration, p.o.): No significant kaliuretic effects were observed

[Ba+2].[Cl-].[Cl-] [barium chloride, reference compound]
% Change Ba^+2 ([3]; barium chloride 300 mg/kg oral, effect of Ba^+2 on transit): +93%

Clc1ccccc1CN1CCc2sccc2C1 [ticlopidine]
risk of a second ischemic event [7]: demonstrated to reduce the risk of a second ischemic event
